In patent US20240148821A1, “PHARMACEUTICAL USE OF CYCLIC PEPTIDE COMPOUND” (CHUGAI SEIYAKU KABUSHIKI KAISHA, priority 2021, published 2024):
Numbered stars: 1 amine (or outer) side, 2 acyl side, 3 side chain; on linkers, the order of the positions; unused ones are H or OH. Bridge positions count the residues as written; N and C are the ends. Square brackets hold non-standard residues; d marks the D form. Peptide text beside a SMILES is read from it. * marks the point of attachment. hPhe(3-Cl-4-CF3) = N[C@@H](CCc1ccc(C(F)(F)F)c(Cl)c1)C(=O)O; NEtPhe(4-CF3) = CCN[C@@H](Cc1ccc(C(F)(F)F)cc1)C(=O)O; hPhe(4-CF3) = N[C@@H](CCc1ccc(C(F)(F)F)cc1)C(=O)O; NMePhe(4-Cl) = CN[C@@H](Cc1ccc(Cl)cc1)C(=O)O; X30 = O=C([C@H](CCc1ccc(Cl)cc1F)N[*:1])[*:2]; NEtPhe(2-Cl) = CCN[C@@H](Cc1ccccc1Cl)C(=O)O; NMePhe(4-Me) = CN[C@@H](Cc1ccc(C)cc1)C(=O)O; NMePhe(2-Cl) = CN[C@@H](Cc1ccccc1Cl)C(=O)O; hPhe(3-Cl) = N[C@@H](CCc1cccc(Cl)c1)C(=O)O; hPhe(4-Cl) = N[C@@H](CCc1ccc(Cl)cc1)C(=O)O; NMedβ3hAla = C[C@H](CC(=O)[*:2])N(C)[*:1]; NMeGly(cPent) = CN[C@H](C(=O)O)C1CCCC1; Pro(4,4-F2) = O=C(O)[C@@H]1CC(F)(F)CN1; Ala(cPent) = N[C@@H](CC1CCCC1)C(=O)O; NMeCha = CN[C@@H](CC1CCCCC1)C(=O)O; NMeF = CN[C@@H](Cc1ccccc1)C(=O)O; NMeI = CC[C@H](C)[C@H](NC)C(=O)O; NMeD = CN[C@@H](CC(=O)O)C(=O)O; NMeL = CN[C@@H](CC(C)C)C(=O)O; NMeV = CN[C@H](C(=O)O)C(C)C; d(β3hA) = C[C@@H](N)CC(=O)O; NMeA = CN[C@@H](C)C(=O)O; NMeAib = CNC(C)(C)C(=O)O; Piperidide = C1CCN(*)CC1; Pyrrolidide = C1CCN(*)C1; Ac5c = NC1(C(=O)O)CCCC1; Aze = O=C(O)[C@@H]1CCN1; Ac4c = NC1(C(=O)O)CCC1; Aib = CC(C)(N)C(=O)O; Sar = CNCC(=O)O

Biological target: protein-protein interaction between Kras and SOS1 (biotin-tagged human Kras loaded with GDP, His-tagged human SOS1) (Homo sapiens (Human), UniProt P01116, G12D)
Assay: Protein-protein interaction inhibition between Kras and SOS1 (KrasG12D-SOS PPI) using AlphaScreen;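 note: kras produced in E. coli, Ni-coupled donor beads and streptavidin acceptor beads, excitation 680 nm with emission detected at 520–620 nm via singlet oxygen transfer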
Assay type: biochemical
Details: AlphaScreen; biotin-tagged human Kras loaded with GDP, His-tagged human SOS1; read-out: KRAS G12D-SOS PPI IC50

**Q.** `CC[C@H](C)[C@@H]1NC(=O)[C@H](C)N(C)C(=O)C[C@@H](C)NC(=O)[C@H](CC(C)C)N(C)C(=O)C(C)(C)NC(=O)[C@H](CC(C)C)N(C)C(=O)[C@H](CCc2cccc(Cl)c2)NC(=O)CN(C)C(=O)[C@H](Cc2ccc(Cl)cc2)N(C)C(=O)CN(C)C(=O)CN(C)C1=O` [Compound 153] (cyclo([Aib][NMeL][d(β3hA)][NMeA]I[Sar][Sar][NMePhe(4-Cl)][Sar][hPhe(3-Cl)][NMeL])) was tested. Which IC50 did it give?
**A.** Its IC50 is 60 nM.

**Q.** How did the IC50 turn out when `CC[C@H](C)[C@@H]1NC(=O)[C@H](C)N(C)C(=O)C[C@@H](C)N(C)C(=O)[C@H](CC(C)C)NC(=O)C(C)(C)N(C)C(=O)[C@H](CC(C)C)NC(=O)[C@H](CCc2ccc(C(F)(F)F)cc2)NC(=O)CN(C)C(=O)[C@H](Cc2ccc(Cl)cc2)N(C)C(=O)CN(C)C(=O)CN(C)C1=O` [Compound 323] (cyclo(I[Sar][Sar][NMePhe(4-Cl)][Sar][hPhe(4-CF3)]L[NMeAib]L[NMedβ3hAla][NMeA])) was run?
**A.** The IC50 was 140 nM.

**Q.** `CC[C@H](C)[C@@H]1NC(=O)[C@H](CC(C)C)N(C)C(=O)C[C@@H](C)N(C)C(=O)[C@H](C(C)C)N(C)C(=O)C2(CCCC2)NC(=O)[C@@H]2CCCN2C(=O)[C@H](CCc2ccc(C(F)(F)F)c(Cl)c2)NC(=O)CN(C)C(=O)[C@H](CC2CCCCC2)N(C)C(=O)[C@@H]2CCN2C(=O)CN(C)C1=O` [Compound 1648] (cyclo([Ac5c][NMeV][NMedβ3hAla][NMeL]I[Sar][Aze][NMeCha][Sar][hPhe(3-Cl-4-CF3)]P)) was tested. Which IC50 did it give?
**A.** The IC50 was 10 nM.

**Q.** Which IC50 does the source give for `CC[C@H](C)[C@@H]1NC(=O)[C@H](CC(C)C)N(C)C(=O)C[C@@H](C)N(C)C(=O)[C@H](C2CCCC2)N(C)C(=O)C2(CCC2)NC(=O)[C@@H]2CC(F)(F)CN2C(=O)[C@H](CCc2ccc(C(F)(F)F)c(Cl)c2)NC(=O)CN(C)C(=O)[C@H](Cc2ccc(C(F)(F)F)cc2)N(CC)C(=O)[C@@H]2CCN2C(=O)[C@H](C)N(C)C1=O` [Compound 949] (cyclo([Ac4c][NMeGly(cPent)][NMedβ3hAla][NMeL]I[NMeA][Aze][NEtPhe(4-CF3)][Sar][hPhe(3-Cl-4-CF3)][Pro(4,4-F2)])) here?
**A.** The IC50 was 1.3 nM.

**Q.** `CC[C@H](C)[C@@H]1NC(=O)[C@H](C)N(C)C(=O)C[C@@H](C(=O)N(C)C)N(C)C(=O)[C@H]([C@@H](C)CC)N(C)C(=O)C2(CCCC2)NC(=O)[C@H](Cc2ccccc2Cl)N(CC)C(=O)[C@H](CCc2ccc(C(F)(F)F)c(Cl)c2)NC(=O)CN(C)C(=O)[C@H](Cc2ccc(C)cc2)N(C)C(=O)[C@@H]2CCN2C(=O)[C@H](C)N(C)C1=O` [Compound 2163] ([NMeA]I[NMeA][Aze][NMePhe(4-Me)][Sar][hPhe(3-Cl-4-CF3)][NEtPhe(2-Cl)][Ac5c][NMeI][NMeD]-NMe2; lactam N-11) was tested. Which IC50 did it give?
**A.** The IC50 was 73 nM.

**Q.** How did the IC50 turn out when `CC(C)C[C@H]1C(=O)N[C@@H](CC2CCCC2)C(=O)N(C)[C@@H](C)C(=O)N2CC[C@H]2C(=O)N(C)[C@@H](CC2CCCCC2)C(=O)N(C)CC(=O)N[C@@H](CCc2ccc(C(F)(F)F)c(Cl)c2)C(=O)N2CCC[C@H]2C(=O)NC2(CCCC2)C(=O)N(C)[C@@H](C(C)C)C(=O)N(C)[C@H](C(=O)N2CCCCC2)CC(=O)N1C` [Compound 84] ([NMeL][Ala(cPent)][NMeA][Aze][NMeCha][Sar][hPhe(3-Cl-4-CF3)]P[Ac5c][NMeV][NMeD]-Piperidide; lactam N-11) was run?
**A.** Its IC50 is 73 nM.

**Q.** With `CC[C@H](C)[C@@H]1NC(=O)[C@H](C)N(C)C(=O)C[C@@H](C(=O)N2CCCC2)N(C)C(=O)[C@H](C(C)C)N(C)C(=O)C2(CCCC2)NC(=O)[C@H](Cc2ccccc2Cl)N(C)C(=O)[C@H](CCc2ccc(Cl)cc2)NC(=O)CN(C)C(=O)[C@H](CC2CCCCC2)N(C)C(=O)CN(C)C(=O)CN(C)C1=O` [Compound 607] ([NMeA]I[Sar][Sar][NMeCha][Sar][hPhe(4-Cl)][NMePhe(2-Cl)][Ac5c][NMeV][NMeD]-Pyrrolidide; lactam N-11) as the molecule, how does the IC50 read?
**A.** The IC50 was 220 nM.

**Q.** How did the IC50 turn out when `CC[C@H](C)[C@@H]1NC(=O)[C@H](C)N(C)C(=O)C[C@@H](C)NC(=O)[C@H](CC(C)C)N(C)C(=O)[C@H](Cc2ccccc2)N(C)C(=O)[C@H](CC(C)C)NC(=O)[C@H](CCc2ccc(Cl)cc2F)NC(=O)CN(C)C(=O)[C@H](Cc2ccc(Cl)cc2)N(C)C(=O)CN(C)C(=O)CN(C)C1=O` [Compound 2086] (cyclo(I[Sar][Sar][NMePhe(4-Cl)][Sar][X30]L[NMeF][NMeL][d(β3hA)][NMeA])) was run?
**A.** The IC50 was 100 nM.
